Test results taken from ChEMBL document CHEMBL3638947, “TRPV1 antagonists” (2015).

molecular target: Transient receptor potential cation channel subfamily V member 1 (Homo sapiens, UniProt Q8NER1); experiment: Activation Assay: The cDNA for human TRPV1 (hTRPV1) was isolated by reverse transcriptase-polymerase chain reaction (RT-PCR) from human small intestine poly A+ RNA supplied by Clontech (Palo Alto, Calif.) using primers designed surrounding the initiation and termination codons identical to the published sequences (Hayes et al. Pain 2000, 88, 205-215). The resulting cDNA PCR products were subcloned into pCIneo mammalian expression vector (Promega) and fully sequenced using fluorescent dye-terminator reagents (Prism, PerkinElmer Applied Biosystems Division) and a PerkinElmer Applied Biosystems Model 373 DNA sequencer or Model 310 genetic analyzer. Expression plasmids encoding the hTRPV1 cDNA were transfected into HEK293 cells using Lipofectamine. Forty-eight hours after transfection, the neomycin-resistant cells were selected with growth medium containing 800 ug/mL Geneticin (Life Technologies, formerly Gibco BRL). Surviving individual colonies were isolated and screened for TRPV1 activity.; format: cell-based
Sequence (Q8NER1 whole entry): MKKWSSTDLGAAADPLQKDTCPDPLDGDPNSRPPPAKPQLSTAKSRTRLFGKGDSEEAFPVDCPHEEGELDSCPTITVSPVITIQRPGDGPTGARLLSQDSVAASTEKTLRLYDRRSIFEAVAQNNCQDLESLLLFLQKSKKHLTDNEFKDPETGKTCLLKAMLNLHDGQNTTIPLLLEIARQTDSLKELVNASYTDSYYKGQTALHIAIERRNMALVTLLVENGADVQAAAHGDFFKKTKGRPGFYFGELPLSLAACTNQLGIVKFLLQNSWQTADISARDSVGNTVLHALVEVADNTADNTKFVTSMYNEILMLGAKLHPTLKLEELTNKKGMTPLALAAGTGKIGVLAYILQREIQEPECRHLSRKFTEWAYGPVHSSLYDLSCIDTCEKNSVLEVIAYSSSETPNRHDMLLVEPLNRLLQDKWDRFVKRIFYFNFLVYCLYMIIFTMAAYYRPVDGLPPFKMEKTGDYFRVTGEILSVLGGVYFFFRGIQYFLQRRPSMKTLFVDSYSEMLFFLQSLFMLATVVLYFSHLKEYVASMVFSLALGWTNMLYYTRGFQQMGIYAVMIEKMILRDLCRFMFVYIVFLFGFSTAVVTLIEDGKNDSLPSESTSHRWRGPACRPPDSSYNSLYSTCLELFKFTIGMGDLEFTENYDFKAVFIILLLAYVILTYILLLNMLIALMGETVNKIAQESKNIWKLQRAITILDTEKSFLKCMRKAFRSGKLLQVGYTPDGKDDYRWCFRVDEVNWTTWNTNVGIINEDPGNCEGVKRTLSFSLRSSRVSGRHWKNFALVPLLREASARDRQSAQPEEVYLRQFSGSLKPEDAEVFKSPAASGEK

Compared with CCC1(CC)C[C@@H](NC(=O)Nc2cccc3c2CNC(=O)N3C)c2ccc(F)cc2O1, CN1C(=O)NCc2c(NC(=O)N[C@@H]3CC(C)(C)Oc4cc(Cl)ccc43)cccc21 is 1.8-fold higher in IC50: 24 nM for the first, 42 nM for the second.

Going from CN1C(=O)CCc2ccc(NC(=O)N[C@@H]3CCOc4c3cccc4C(F)(F)F)cc21 to CN1Cc2ccc(NC(=O)N[C@@H]3CC(C)(C)Oc4c(F)cccc43)cc2NC1=O, the IC50 rises from 94 nM to 820 nM (8.7-fold). The first is the more potent here.

CN1C(=O)NCc2c(NC(=O)N[C@@H]3CC(C)(C)Oc4ccccc43)cccc21 and CN1C(=O)NCc2c(NC(=O)N[C@@H]3CC(C)(C)c4ccccc43)cccc21 are within 1.5-fold of each other in IC50: 37 nM for the first, 29 nM for the second.

First: Cn1c(=O)ccc2c(NC(=O)N[C@@H]3CC(C)(C)Oc4cc(F)ccc43)cccc21
Second: CN1C(=O)NCc2c(NC(=O)N[C@@H]3CC(CF)(CF)Oc4c3ccc(Cl)c4F)cccc21
The IC50 of the first is 2.5-fold lower: 10 nM for the first, 25 nM for the second. The first is the more potent here.

O=C1CCc2ccc(NC(=O)N[C@@H]3CC(CF)(CF)Oc4cc(Cl)ccc43)cc2N1 gave an IC50 of 35 nM.
